The target in one assay is T1, KRAS G12D (Homo sapiens, UniProt P01116, G12D).
T1 construct: aa1-188 KRAS WT, HRAS WT, NRAS WT, or KRAS containing the G12D
Description: HTRF nucleotide exchange assay, KRAS G12D. The conditions noted are these: HTRF nucleotide exchange assay (NEA), class symbols. The format is biochemical.

The next assay addresses T2, KRAS WT (Homo sapiens, UniProt P01116).
T2 construct: aa1-188 KRAS WT
As to the kind of experiment: HTRF nucleotide exchange assay, KRAS WT. The format is biochemical. The conditions noted are these: HTRF nucleotide exchange assay (NEA), class symbols. For orientation: Time-resolved FRET reads energy transfer from a long-lived donor to a nearby acceptor.

This is an account of results in US20260347364A1, “PYRAZOLO[4,3-F]QUINAZOLINE DERIVATIVES AS MODULATORS OF G12D MUTANT KRAS USEFUL FOR THE TREATMENT OF CANCER” (JAZZ PHARMACEUTICALS IRELAND LTD., priority 2023, published 2026).

pIC50: −log10 of the molar value.

Broadly, the pIC50 is −log10 of the IC50, conventionally taken in molar units.

T1 sequence (P01116 1-188 isoform P01116-2 G12D): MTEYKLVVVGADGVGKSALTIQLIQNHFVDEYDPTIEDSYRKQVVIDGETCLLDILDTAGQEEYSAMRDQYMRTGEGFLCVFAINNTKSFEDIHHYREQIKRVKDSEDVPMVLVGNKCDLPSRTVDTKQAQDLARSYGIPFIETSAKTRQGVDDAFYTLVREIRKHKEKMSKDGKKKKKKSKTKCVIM
T2 sequence (P01116 1-188 isoform P01116-2): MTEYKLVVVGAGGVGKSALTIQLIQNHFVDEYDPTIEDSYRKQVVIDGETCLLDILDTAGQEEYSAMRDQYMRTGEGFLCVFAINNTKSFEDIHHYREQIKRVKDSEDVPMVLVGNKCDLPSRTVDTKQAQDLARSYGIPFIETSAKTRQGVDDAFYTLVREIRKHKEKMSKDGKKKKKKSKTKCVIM

Consider `CCc1c(F)ccc2cc(O)cc(-c3c(C)c4nc(OC[C@@H]5CCCN5C)nc(N5CCOCC(C)(O)C5)c4c4cn(C)nc34)c12` (stereo partly drawn) [Example 138, 4-[4-(8-ethyl-7-fluoro-3-hydroxy-1-naphthyl)-2,5-dimethyl-7-[[(2S)-1-methylpyrrolidin-2-yl]methoxy]pyrazolo[4,3-f]quinazolin-9-yl]-6-methyl-1,4-oxazepan-6-ol], for which the negative-log IC50 (pIC50) against KRAS G12D and on KRAS WT was at least 8.00 throughout.
With `CCc1c(F)ccc2cc(O)cc(-c3c(C)c4nc(OC[C@]5(C)CCCN5)nc(N5CCOCC(C)(O)C5)c4c4cn(C)nc34)c12` (stereo partly drawn) [Example 139, 4-[4-(8-ethyl-7-fluoro-3-hydroxy-1-naphthyl)-2,5-dimethyl-7-[[(2S)-2-methylpyrrolidin-2-yl]methoxy]pyrazolo[4,3-f]quinazolin-9-yl]-6-methyl-1,4-oxazepan-6-ol], the pIC50 against KRAS G12D and against KRAS WT was at least 8.00 each time.
Take `CCc1c(F)ccc2cc(O)cc(-c3c(C)c4nc(OC[C@@H]5C[C@@H](F)CN5)nc(N5CCOCC(C)(O)C5)c4c4cn(C)nc34)c12` (stereo partly drawn) [Example 140, 4-[4-(8-ethyl-7-fluoro-3-hydroxy-1-naphthyl)-2,5-dimethyl-7-[[(2S,4R)-4-fluoropyrrolidin-2-yl]methoxy]pyrazolo[4,3-f]quinazolin-9-yl]-6-methyl-1,4-oxazepan-6-ol]: the pIC50 against KRAS G12D and at KRAS WT was at least 8.00 in each case.
In the case of `CCc1c(F)ccc2cc(O)cc(-c3c(C)c4nc(OCC5(C)C[C@@H](O)CN5C)nc(N5CCOCC(C)(O)C5)c4c4cn(C)nc34)c12` (stereo partly drawn) [Example 141, 4-[4-(8-ethyl-7-fluoro-3-hydroxy-1-naphthyl)-2,5-dimethyl-7-[[(4R)-4-hydroxy-1,2-dimethyl-pyrrolidin-2-yl]methoxy]pyrazolo[4,3-f]quinazolin-9-yl]-6-methyl-1,4-oxazepan-6-ol], the negative logarithm of the IC50 (pIC50) at KRAS G12D and on KRAS WT was at least 8.00 throughout.
Take `CCc1c(F)ccc2cc(O)cc(-c3c(C)c4nc(OCC5(CN(C)C)CC5)nc(N5CCOCC(C)(O)C5)c4c4cn(C)nc34)c12` (stereo not drawn) [Example 142, 4-[7-[[1-[(dimethylamino)methyl]cyclopropyl]methoxy]-4-(8-ethyl-7-fluoro-3-hydroxy-1-naphthyl)-2,5-dimethyl-pyrazolo[4,3-f]quinazolin-9-yl]-6-methyl-1,4-oxazepan-6-ol]: the pIC50 on KRAS G12D and against KRAS WT was at least 8.00 in each case.
For the compound `CCc1c(F)ccc2cc(O)cc(-c3c(C)c4nc(OC[C@@H]5CCN5C)nc(N5CCOCC(C)(O)C5)c4c4cn(C)nc34)c12` (stereo partly drawn) [Example 143, 4-[4-(8-ethyl-7-fluoro-3-hydroxy-1-naphthyl)-2,5-dimethyl-7-[[(2S)-1-methylazetidin-2-yl]methoxy]pyrazolo[4,3-f]quinazolin-9-yl]-6-methyl-1,4-oxazepan-6-ol], the pIC50 against KRAS G12D and against KRAS WT was at least 8.00 each time.
As for `CCc1c(F)ccc2cc(O)cc(-c3c(C)c4nc(OC[C@@H]5CCN5)nc(N5CCOCC(C)(O)C5)c4c4cn(C)nc34)c12` (stereo partly drawn) [Example 144, 4-[4-(8-ethyl-7-fluoro-3-hydroxy-1-naphthyl)-2,5-dimethyl-7-[[(2S)-azetidin-2-yl]methoxy]pyrazolo[4,3-f]quinazolin-9-yl]-6-methyl-1,4-oxazepan-6-ol], the pIC50 against KRAS G12D was at least 8.00; at KRAS WT, 7.00 to 8.00.
On to `CCc1c(F)ccc2cc(O)cc(-c3c(C)c4nc(OCC5(C)CC(O)CN5)nc(N5CCOCC(C)(O)C5)c4c4cn(C)nc34)c12` (stereo not drawn) [Example 145, 4-[4-(8-ethyl-7-fluoro-3-hydroxy-1-naphthyl)-7-[(4-hydroxy-2-methyl-pyrrolidin-2-yl)methoxy]-2,5-dimethyl-pyrazolo[4,3-f]quinazolin-9-yl]-6-methyl-1,4-oxazepan-6-ol], for which the pIC50 against KRAS G12D and at KRAS WT was at least 8.00 in each case.
Regarding `CCc1c(F)ccc2cc(O)cc(-c3c(C)c4nc(OCC5(CN6CCCC6)CC5)nc(N5CCOCC(C)(O)C5)c4c4cn(C)nc34)c12` (stereo not drawn) [Example 146, 4-[4-(8-ethyl-7-fluoro-3-hydroxy-1-naphthyl)-2,5-dimethyl-7-[[1-(pyrrolidin-1-ylmethyl)cyclopropyl]methoxy]pyrazolo[4,3-f]quinazolin-9-yl]-6-methyl-1,4-oxazepan-6-ol], the pIC50 against KRAS G12D and against KRAS WT was at least 8.00 each time.
For the compound `CCc1c(F)ccc2cc(O)cc(-c3c(C)c4nc(OCC56CCCN5CCC6)nc(N5CCOCC(C)(O)C5)c4c4cn(C)nc34)c12` (stereo not drawn) [Example 147, 4-[4-(8-ethyl-7-fluoro-3-hydroxy-1-naphthyl)-7-(1,2,3,5,6,7-hexahydropyrrolizin-8-ylmethoxy)-2,5-dimethyl-pyrazolo[4,3-f]quinazolin-9-yl]-6-methyl-1,4-oxazepan-6-ol], the pIC50 against KRAS G12D and against KRAS WT was at least 8.00 each time.
On to `CCc1c(F)ccc2cc(O)cc(-c3c(C)c4nc(OC[C@]5(C)CCCN5C)nc(N5CCOCC(C)(O)C5)c4c4cn(C)nc34)c12` (stereo partly drawn) [Example 148, 4-[4-(8-ethyl-7-fluoro-3-hydroxy-1-naphthyl)-2,5-dimethyl-7-[[(2S)-1,2-dimethylpyrrolidin-2-yl]methoxy]pyrazolo[4,3-f]quinazolin-9-yl]-6-methyl-1,4-oxazepan-6-ol], for which the negative logarithm of the IC50 (pIC50) against KRAS G12D and at KRAS WT was at least 8.00 in each case.
With `CCc1c(F)ccc2cc(O)cc(-c3c(C)c4nc(OCC5(CN6CCOCC6)CC5)nc(N5CCOCC(C)(O)C5)c4c4cn(C)nc34)c12` (stereo not drawn) [Example 149, 4-[4-(8-ethyl-7-fluoro-3-hydroxy-1-naphthyl)-2,5-dimethyl-7-[[1-(morpholinomethyl)cyclopropyl]methoxy]pyrazolo[4,3-f]quinazolin-9-yl]-6-methyl-1,4-oxazepan-6-ol], the negative-log IC50 (pIC50) at KRAS G12D and on KRAS WT was at least 8.00 in each case.
With `CCc1c(F)ccc2cc(O)cc(-c3c(F)c4nc(OC[C@@H]5C[C@@H](F)CN5)nc(N5CCOCC(C)(O)C5)c4c4cn(C)nc34)c12` (stereo partly drawn) [Example 150, 4-[4-(8-ethyl-7-fluoro-3-hydroxy-1-naphthyl)-5-fluoro-2-methyl-7-[[(2S,4R)-4-fluoropyrrolidin-2-yl]methoxy]pyrazolo[4,3-f]quinazolin-9-yl]-6-methyl-1,4-oxazepan-6-ol], the pIC50 on KRAS G12D and against KRAS WT was at least 8.00 throughout.
For `CCc1c(F)ccc2cc(O)cc(-c3c(F)c4nc(OCC5(C)CC(OC)CN5)nc(N5CCOCC(C)(O)C5)c4c4cn(C)nc34)c12` (stereo not drawn) [Example 151, 4-[4-(8-ethyl-7-fluoro-3-hydroxy-1-naphthyl)-5-fluoro-7-[(4-methoxy-2-methyl-pyrrolidin-2-yl)methoxy]-2-methyl-pyrazolo[4,3-f]quinazolin-9-yl]-6-methyl-1,4-oxazepan-6-ol], the pIC50 against KRAS G12D and on KRAS WT was at least 8.00 throughout.
Regarding `CCc1c(F)ccc2cc(O)cc(-c3c(F)c4nc(OCC5(C)CC(O)CN5)nc(N5CCOCC(C)(O)C5)c4c4cn(C)nc34)c12` (stereo not drawn) [Example 152, 4-[4-(8-ethyl-7-fluoro-3-hydroxy-1-naphthyl)-5-fluoro-7-[(4-hydroxy-2-methyl-pyrrolidin-2-yl)methoxy]-2-methyl-pyrazolo[4,3-f]quinazolin-9-yl]-6-methyl-1,4-oxazepan-6-ol], the pIC50 against KRAS G12D and at KRAS WT was at least 8.00 each time.
Take `CCc1c(F)ccc2cc(O)cc(-c3c(F)c4nc(OC[C@@H]5CCCN5C)nc(N5CCOCC(C)(O)C5)c4c4cn(C)nc34)c12` (stereo partly drawn) [Example 154, 4-[4-(8-ethyl-7-fluoro-3-hydroxy-1-naphthyl)-5-fluoro-2-methyl-7-[[(2S)-1-methylpyrrolidin-2-yl]methoxy]pyrazolo[4,3-f]quinazolin-9-yl]-6-methyl-1,4-oxazepan-6-ol]: the pIC50 against KRAS G12D and against KRAS WT was at least 8.00 in each case.
With `CCc1c(F)ccc2cc(O)cc(-c3c(F)c4nc(OCC5(CN6CCCC6)CC5)nc(N5CCOCC(C)(O)C5)c4c4cn(C)nc34)c12` (stereo not drawn) [Example 155, 4-[4-(8-ethyl-7-fluoro-3-hydroxy-1-naphthyl)-5-fluoro-2-methyl-7-[[1-(pyrrolidin-1-ylmethyl)cyclopropyl]methoxy]pyrazolo[4,3-f]quinazolin-9-yl]-6-methyl-1,4-oxazepan-6-ol], the pIC50 at KRAS G12D and on KRAS WT was at least 8.00 in each case.
In the case of `CCc1c(F)ccc2cc(O)cc(-c3c(F)c4nc(OC[C@@H]5CCN5)nc(N5CCOCC(C)(O)C5)c4c4cn(C)nc34)c12` (stereo partly drawn) [Example 156, 4-[4-(8-ethyl-7-fluoro-3-hydroxy-1-naphthyl)-5-fluoro-2-methyl-7-[[(2S)-azetidin-2-yl]methoxy]pyrazolo[4,3-f]quinazolin-9-yl]-6-methyl-1,4-oxazepan-6-ol], the pIC50 against KRAS G12D and on KRAS WT was at least 8.00 in each case.
`CCc1c(F)ccc2cc(O)cc(-c3c(F)c4nc(OCC5(CN(C)C)CC5)nc(N5CCOCC(C)(O)C5)c4c4cn(C)nc34)c12` (stereo not drawn) [Example 157, 4-[7-[[1-[(dimethylamino)methyl]cyclopropyl]methoxy]-4-(8-ethyl-7-fluoro-3-hydroxy-1-naphthyl)-5-fluoro-2-methyl-pyrazolo[4,3-f]quinazolin-9-yl]-6-methyl-1,4-oxazepan-6-ol]: the pIC50 on KRAS G12D and against KRAS WT was at least 8.00 each time.
For `CCc1c(F)ccc2cc(O)cc(-c3c(F)c4nc(OC[C@@H]5CCN5C)nc(N5CCOCC(C)(O)C5)c4c4cn(C)nc34)c12` (stereo partly drawn) [Example 158, 4-[4-(8-ethyl-7-fluoro-3-hydroxy-1-naphthyl)-5-fluoro-2-methyl-7-[[(2S)-1-methylazetidin-2-yl]methoxy]pyrazolo[4,3-f]quinazolin-9-yl]-6-methyl-1,4-oxazepan-6-ol], the negative-log IC50 (pIC50) at KRAS G12D and on KRAS WT was at least 8.00 each time.
As to `CCc1c(F)ccc2cc(O)cc(-c3c(F)c4nc(OC[C@]5(C)CCCN5)nc(N5CCOCC(C)(O)C5)c4c4cn(C)nc34)c12` (stereo partly drawn) [Example 159, 4-[4-(8-ethyl-7-fluoro-3-hydroxy-1-naphthyl)-5-fluoro-2-methyl-7-[[(2S)-2-methylpyrrolidin-2-yl]methoxy]pyrazolo[4,3-f]quinazolin-9-yl]-6-methyl-1,4-oxazepan-6-ol], the negative-log IC50 (pIC50) at KRAS G12D and at KRAS WT was at least 8.00 throughout.
